# Results taken from ChEMBL document CHEMBL1201862, “PubChem BioAssay data set” (2004).
#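 Protocol summary: plate cells (96-well), add compound at 5 concentrations, incubate 48 h, interpolate endpoints linearly. GI50: concentration for 50% inhibition of growth.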 The source made the active and inactive calls. No stated cut-off is given here; in the data, active = GI50 up to about 1.1 µM and inactive = higher.
# How the values were obtained:
# Assay in all cases: NCI-60 cell line screen, 48 h
# U-251 = tested on: U-251
# HCC 2998 = tested on: HCC 2998
# SF-295 = tested on: SF-295
# K562 = tested on: K562
# ACHN = tested on: ACHN
# RPMI-8226 = tested on: RPMI-8226
# SNB-19 = tested on: SNB-19
# RXF 393 = tested on: RXF 393
# EKVX = tested on: EKVX
# HT-29 = tested on: HT-29
# HL-60 = tested on: HL-60
# SNB-75 = tested on: SNB-75
# SN12C = tested on: SN12C
# M19-MEL = tested on: M19-MEL
# SK-MEL-5 = tested on: SK-MEL-5
# KM12 = tested on: KM12
# OVCAR-5 = tested on: OVCAR-5
# SF-268 = tested on: SF-268
# SK-OV-3 = tested on: SK-OV-3
# SK-MEL-28 = tested on: SK-MEL-28
# TK-10 = tested on: TK-10
# SR = tested on: SR
# OVCAR-8 = tested on: OVCAR-8
# OVCAR-3 = tested on: OVCAR-3
# LXFL 529 = tested on: LXFL 529
# IGROV-1 = tested on: IGROV-1
# CAKI-1 = tested on: CAKI-1
# DLD-1 = tested on: DLD-1
# COLO 205 = tested on: COLO 205
# DMS-114 = tested on: DMS-114
# UO-31 = tested on: UO-31
# HCT-116 = tested on: HCT-116
# UACC-257 = tested on: UACC-257
# SNB-78 = tested on: SNB-78
# NCI-H23 = tested on: NCI-H23
# XF498 = tested on: XF498
# UACC-62 = tested on: UACC-62
# Malme-3M = tested on: Malme-3M
# SK-MEL-2 = tested on: SK-MEL-2
# KM-20L2 = tested on: KM-20L2
# SW-620 = tested on: SW-620
# MOLT-4 = tested on: MOLT-4
# NCI-H226 = tested on: NCI-H226
# DMS-273 = tested on: DMS-273
# CCRF-CEM = tested on: CCRF-CEM
# HOP-62 = tested on: HOP-62
# A498 = tested on: A498
# NCI-H460 = tested on: NCI-H460
# 786-0 = tested on: 786-0
# HCT-15 = tested on: HCT-15
# NCI-H522 = tested on: NCI-H522
# A549 = tested on: A549
# LOX IMVI = tested on: LOX IMVI
# SF-539 = tested on: SF-539
# M14 = tested on: M14
# HOP-92 = tested on: HOP-92
# OVCAR-4 = tested on: OVCAR-4
structure (smiles),measurement,setting,value
Clc1ccc2c(Cl)nc(-c3ccccc3)nc2c1,GI50,U-251,11.8 µM (inactive)
same,GI50,HCC 2998,34.8 µM (inactive)
same,GI50,SF-295,25.2 µM (inactive)
same,GI50,K562,23.4 µM (inactive)
same,GI50,ACHN,20.9 µM (inactive)
same,GI50,RPMI-8226,10 µM (inactive)
same,GI50,SNB-19,35.6 µM (inactive)
same,GI50,RXF 393,23.4 µM (inactive)
same,GI50,EKVX,11.4 µM (inactive)
same,GI50,HT-29,26.4 µM (inactive)
same,GI50,HL-60,20.2 µM (inactive)
same,GI50,SNB-75,17.7 µM (inactive)
same,GI50,SN12C,21.8 µM (inactive)
same,GI50,M19-MEL,47.1 µM (inactive)
same,GI50,SK-MEL-5,16.5 µM (inactive)
same,GI50,KM12,36.8 µM (inactive)
same,GI50,OVCAR-5,51.8 µM (inactive)
same,GI50,SF-268,24.9 µM (inactive)
same,GI50,SK-OV-3,14.1 µM (inactive)
same,GI50,SK-MEL-28,32.2 µM (inactive)
same,GI50,TK-10,46.1 µM (inactive)
same,GI50,SR,25.2 µM (inactive)
same,GI50,OVCAR-8,34 µM (inactive)
same,GI50,OVCAR-3,17.2 µM (inactive)
same,GI50,LXFL 529,26.9 µM (inactive)
same,GI50,IGROV-1,24.5 µM (inactive)
same,GI50,CAKI-1,23.6 µM (inactive)
same,GI50,DLD-1,27.6 µM (inactive)
same,GI50,COLO 205,41.2 µM (inactive)
same,GI50,DMS-114,18.6 µM (inactive)
same,GI50,UO-31,24.5 µM (inactive)
same,GI50,HCT-116,27.4 µM (inactive)
same,GI50,UACC-257,26.2 µM (inactive)
same,GI50,SNB-78,11.4 µM (inactive)
same,GI50,NCI-H23,10.7 µM (inactive)
same,GI50,XF498,3.88 µM (inactive)
same,GI50,UACC-62,19.4 µM (inactive)
same,GI50,Malme-3M,24.3 µM (inactive)
same,GI50,SK-MEL-2,26.4 µM (inactive)
same,GI50,KM-20L2,25.6 µM (inactive)
same,GI50,SW-620,33.9 µM (inactive)
same,GI50,MOLT-4,20.2 µM (inactive)
same,GI50,NCI-H226,13.2 µM (inactive)
same,GI50,DMS-273,36.7 µM (inactive)
same,GI50,CCRF-CEM,22.9 µM (inactive)
same,GI50,HOP-62,53.2 µM (inactive)
same,GI50,A498,37.4 µM (inactive)
same,GI50,NCI-H460,24.3 µM (inactive)
N#CCCN(c1ccc(/C=C2\N=C(Cc3ccccc3)OC2=O)cc1)S(=O)(=O)c1ccccc1,GI50,U-251,> 100 µM (inactive)
same,GI50,HCC 2998,> 100 µM (inactive)
same,GI50,SF-295,> 100 µM (inactive)
same,GI50,K562,> 100 µM (inactive)
same,GI50,786-0,> 100 µM (inactive)
same,GI50,ACHN,> 100 µM (inactive)
same,GI50,RPMI-8226,> 100 µM (inactive)
same,GI50,SNB-19,> 100 µM (inactive)
same,GI50,RXF 393,> 100 µM (inactive)
same,GI50,HCT-15,> 100 µM
same,GI50,EKVX,> 100 µM (inactive)
same,GI50,HT-29,> 100 µM (inactive)
same,GI50,HL-60,> 100 µM (inactive)
same,GI50,SNB-75,> 100 µM (inactive)
same,GI50,SN12C,> 100 µM (inactive)
same,GI50,SK-MEL-5,> 100 µM (inactive)
same,GI50,KM12,> 100 µM (inactive)
same,GI50,OVCAR-5,> 100 µM (inactive)
same,GI50,SF-268,> 100 µM (inactive)
same,GI50,SK-OV-3,> 100 µM (inactive)
same,GI50,SK-MEL-28,> 100 µM (inactive)
same,GI50,TK-10,> 100 µM (inactive)
same,GI50,NCI-H522,> 100 µM (inactive)
same,GI50,OVCAR-8,> 100 µM (inactive)
same,GI50,OVCAR-3,> 100 µM (inactive)
same,GI50,A549,> 100 µM (inactive)
same,GI50,LXFL 529,> 100 µM (inactive)
same,GI50,LOX IMVI,> 100 µM (inactive)
same,GI50,IGROV-1,> 100 µM (inactive)
same,GI50,CAKI-1,> 100 µM (inactive)
same,GI50,DLD-1,> 100 µM (inactive)
same,GI50,COLO 205,> 100 µM (inactive)
same,GI50,DMS-114,> 100 µM (inactive)
same,GI50,UO-31,> 100 µM (inactive)
same,GI50,HCT-116,> 100 µM (inactive)
same,GI50,UACC-257,> 100 µM (inactive)
same,GI50,SF-539,> 100 µM (inactive)
same,GI50,SNB-78,> 100 µM (inactive)
same,GI50,NCI-H23,> 100 µM (inactive)
same,GI50,XF498,> 100 µM (inactive)
same,GI50,UACC-62,> 100 µM (inactive)
same,GI50,Malme-3M,> 100 µM (inactive)
same,GI50,SK-MEL-2,> 100 µM (inactive)
same,GI50,KM-20L2,> 100 µM (inactive)
same,GI50,SW-620,> 100 µM (inactive)
same,GI50,MOLT-4,> 100 µM (inactive)
same,GI50,NCI-H226,> 100 µM (inactive)
same,GI50,DMS-273,> 100 µM (inactive)
same,GI50,CCRF-CEM,> 100 µM (inactive)
same,GI50,HOP-62,> 100 µM (inactive)
same,GI50,M14,> 100 µM (inactive)
same,GI50,A498,> 100 µM (inactive)
same,GI50,NCI-H460,> 100 µM (inactive)
O=C(O)C(CS)Nc1c2ccccc2nc2ccccc12 (stereo not drawn),GI50,U-251,> 100 µM (inactive)
same,GI50,HCC 2998,82 µM (inactive)
same,GI50,SF-295,56.9 µM (inactive)
same,GI50,K562,49.7 µM (inactive)
same,GI50,786-0,> 100 µM (inactive)
same,GI50,ACHN,38.3 µM (inactive)
same,GI50,RPMI-8226,48.2 µM (inactive)
same,GI50,HOP-92,49.7 µM (inactive)
same,GI50,SNB-19,61.1 µM (inactive)
same,GI50,RXF 393,> 100 µM (inactive)
same,GI50,HCT-15,51.3 µM
same,GI50,EKVX,42.7 µM (inactive)
same,GI50,HT-29,46.6 µM (inactive)
same,GI50,HL-60,80.4 µM (inactive)
same,GI50,SNB-75,> 100 µM (inactive)
same,GI50,SN12C,51.1 µM (inactive)
same,GI50,M19-MEL,57 µM (inactive)
same,GI50,KM12,59.6 µM (inactive)
same,GI50,OVCAR-5,53.5 µM (inactive)
same,GI50,SF-268,> 100 µM (inactive)
same,GI50,OVCAR-4,19.7 µM (inactive)
same,GI50,SK-OV-3,> 100 µM (inactive)
same,GI50,SK-MEL-28,> 100 µM (inactive)
same,GI50,TK-10,35.6 µM (inactive)
same,GI50,NCI-H522,29.1 µM (inactive)
same,GI50,SR,36.3 µM (inactive)
same,GI50,OVCAR-8,48.3 µM (inactive)
same,GI50,OVCAR-3,49.9 µM (inactive)
same,GI50,A549,67.5 µM (inactive)
same,GI50,LXFL 529,> 100 µM (inactive)
same,GI50,LOX IMVI,40.6 µM (inactive)
same,GI50,IGROV-1,> 100 µM (inactive)
same,GI50,CAKI-1,44.7 µM (inactive)
same,GI50,DLD-1,78.9 µM (inactive)
same,GI50,COLO 205,37.7 µM (inactive)
same,GI50,DMS-114,27.7 µM (inactive)
same,GI50,UO-31,26 µM (inactive)
same,GI50,HCT-116,> 10 µM (inactive)
same,GI50,UACC-257,58.5 µM (inactive)
same,GI50,SF-539,50 µM (inactive)
same,GI50,NCI-H23,91.8 µM (inactive)
same,GI50,XF498,24.9 µM (inactive)
same,GI50,Malme-3M,54.3 µM (inactive)
same,GI50,SK-MEL-2,83.9 µM (inactive)
same,GI50,KM-20L2,49.8 µM (inactive)
same,GI50,SW-620,54.1 µM (inactive)
same,GI50,MOLT-4,38.3 µM (inactive)
same,GI50,NCI-H226,> 100 µM (inactive)
same,GI50,DMS-273,34.6 µM (inactive)
same,GI50,CCRF-CEM,79.3 µM (inactive)
same,GI50,M14,43.7 µM (inactive)
same,GI50,NCI-H460,36.1 µM (inactive)
